Measured values from EP2876105A1, “1-(CYCLOALKYL-CARBONYL)PROLINE DERIVATIVE” (Sumitomo Dainippon Pharma Co., Ltd., priority 2012, dated 2014).
Read-outs that look alike come from different tables or passages of the source.

How the values were obtained:
[1] = Ester metabolism stabilization test: human liver stabilization test; type: in vitro ADME; conditions: human liver S9 with NADPH, 37°C, 30 minutes
Procedure: A reaction solution prepared by mixing 5 µL of human liver S9 (manufactured by Xenotech, 20 mg/mL), 20 µL of 500 mmol/L Kpi (pH7.4), 40 µL of 5 mmol/L NADPH (manufactured by Oriental Yeast Co., Ltd.) aqueous solution, and 133 µL of ion exchange water was added to 2 µL of a DMSO solution containing 100 µmol/L test substance, and the thus obtained mixture was then incubated at 37°C for 30 minutes. After completion of the incubation, 600 µL of acetonitrile was added to the reaction solution, so that the metabolic reaction was terminated. The residual percentage of the test substance was measured using LC (LC-20A manufactured by Shimadzu Corporation) and -MS (API4000 manufactured by AB Sciex).

[2] = Ester metabolism stabilization test: stabilization in human plasma test; type: in vitro ADME; conditions: 37°C, 30 minutes
Procedure: 198 µL of human plasma (manufactured by Cosmo Bio) was added to 2 µL of a DMSO solution containing 100 µmol/L test substance, and the obtained mixture was then incubated at 37°C for 30 minutes. After completion of the incubation, 600 µL of acetonitrile was added to the reaction solution, so that the metabolic reaction was terminated. The residual percentage of the test substance was measured using LC (LC-20A manufactured by Shimadzu Corporation) and -MS (API4000 manufactured by AB Sciex).

human FXIa = human FXIa (Homo sapiens, UniProt P03951); test: In vitro activated factor XI (FXIa) inhibition test; type: biochemical
Chain of human FXIa (P03951 388-625 limits assumed): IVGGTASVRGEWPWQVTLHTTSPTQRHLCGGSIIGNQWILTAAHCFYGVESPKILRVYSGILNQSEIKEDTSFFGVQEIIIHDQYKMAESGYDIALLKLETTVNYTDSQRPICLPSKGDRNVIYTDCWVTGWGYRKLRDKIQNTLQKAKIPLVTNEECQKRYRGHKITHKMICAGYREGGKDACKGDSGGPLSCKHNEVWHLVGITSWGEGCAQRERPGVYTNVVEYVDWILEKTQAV
Chain of human FXIa (P03951 19-387 partner limits assumed): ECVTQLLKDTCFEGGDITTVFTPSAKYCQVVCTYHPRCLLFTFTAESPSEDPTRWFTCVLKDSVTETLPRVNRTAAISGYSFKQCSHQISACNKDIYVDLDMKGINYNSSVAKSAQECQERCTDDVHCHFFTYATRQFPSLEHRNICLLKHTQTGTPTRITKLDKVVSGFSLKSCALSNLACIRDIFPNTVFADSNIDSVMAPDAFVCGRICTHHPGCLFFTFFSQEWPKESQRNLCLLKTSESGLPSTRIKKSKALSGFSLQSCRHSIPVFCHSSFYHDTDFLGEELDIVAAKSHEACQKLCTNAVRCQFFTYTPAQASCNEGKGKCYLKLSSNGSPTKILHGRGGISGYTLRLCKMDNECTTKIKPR
Procedure: To the substrate, S-2366 (pyroGlu-Pro-Arg-pNA•HCl) was added to a final concentration of 300 µmol/L. After the reaction had progressed, the absorbance at OD 405 nm was measured. […]

[3] = 0.35 µg/mL human FXIa, substrate S-2366 300 µmol/L, 37°C, 10 minutes, OD 405 nm, read-out: FXIa inhibitory activity IC50

Compound	Residual percentage (%) Human liver S9 [1] [%]	Residual percentage (%) Human plasma [2] [%]	IC50 (human FXIa; [3]) [µM]	IC50 (human FXIa) [µM]
CCC(=O)OC(OC(=O)c1cc2cc(NC(=O)[C@@H]3[C@@H](c4ccccc4)CCN3C(=O)[C@H]3CC[C@H]([C@H](N)CF)CC3)ccc2[nH]1)C(C)C (stereo partly shown) [compound 125]	5.6	86	–	–
CC(OC(=O)OC1CCCCC1)OC(=O)c1cc2cc(NC(=O)[C@@H]3[C@@H](c4ccccc4)CCN3C(=O)[C@H]3CC[C@H]([C@H](N)CF)CC3)ccc2[nH]1 (stereo partly shown) [compound 120]	4.9	65	–	–
COC1CCC([C@@H]2CCN(C(=O)[C@H]3CC[C@H]([C@H](N)CF)CC3)[C@@H]2C(=O)Nc2ccc3oc(C(=O)OCC(C)C)cc3c2)CC1 (stereo partly shown) [compound 201]	45	85	4.1	–
CC(C)OC(=O)OC(C)OC(=O)c1cc2cc(NC(=O)[C@@H]3[C@H](C4CCCCC4)CCN3C(=O)[C@H]3CC[C@H]([C@H](N)CF)CC3)ccc2[nH]1 (stereo partly shown) [compound 128]	47	82	–	–
N[C@H](CF)[C@H]1CC[C@H](C(=O)N2CC[C@@H](C3CCCCC3)[C@H]2C(=O)Nc2ccc3oc(C(=O)OCC4CCOCC4)cc3c2)CC1 [compound 141]	17	94	–	3.45
(1R)-1-([(1S)-1-(trans-4-{[(2S,3S)-3-Cyclohexyl-2-{[4-(1H-tetrazol-5-yl)phenyl]carbamoyl}pyrrolidin-1-yl]carbonyl}cyclohexyl)-2-fluoroethyl]carbamoyl}oxy)ethyl 2-methylpropanoate [Example 205]	3.5	60	–	–
Cc1oc(=O)oc1COC(=O)c1cc2cc(NC(=O)[C@@H]3[C@@H](c4ccccc4)CCN3C(=O)[C@H]3CC[C@H]([C@H](N)CF)CC3)ccc2[nH]1 [compound 171]	18	<1	0.3	–
COCCCOC(=O)c1cc2cc(NC(=O)[C@@H]3[C@H](C4CCCCC4)CCN3C(=O)[C@H]3CC[C@H]([C@H](N)CF)CC3)ccc2o1 [compound 82]	5.8	92	–	–
